CC(C)N1C(=O)N(c2ccccc2)CSC1=NC(C)(C)C
solubility (mole fraction)
Details	273.15 K	278.15 K	283.15 K	288.15 K	293.15 K	298.15 K	303.15 K	308.15 K	313.15 K	318.15 K
in DMF	0.0306	0.0389	0.0493	0.0608	0.0725	0.0871	0.104	0.122	0.141	0.162
in acetone	0.03	0.0361	0.0427	0.0504	0.0593	0.0699	0.0814	0.096	0.114	0.134
in acetonitrile	0.00534	0.00774	0.0101	0.0133	0.0171	0.0219	0.0284	0.0354	0.0448	0.0564
in ethanol	0.00539	0.007	0.00917	0.0116	0.0146	0.0182	0.0228	0.0276	0.0342	0.0425
in ethyl acetate	0.0372	0.0465	0.0561	0.0679	0.0815	0.0971	0.116	0.136	0.16	0.187
in isopropanol	0.00586	0.00785	0.0103	0.0131	0.0165	0.0207	0.0254	0.031	0.0376	0.0454
in methanol	0.00377	0.00497	0.0064	0.00797	0.00998	0.0123	0.0154	0.0184	0.0225	0.0272
in n-butanol	0.00627	0.00908	0.0127	0.0167	0.0218	0.0281	0.0364	0.045	0.0577	0.0714
in n-octanol	0.00824	0.0114	0.0152	0.0197	0.0251	0.0321	0.0404	0.0505	0.063	0.0789
in n-propanol	0.00564	0.00798	0.011	0.0148	0.019	0.0254	0.0323	0.0414	0.0528	0.0668
in toluene	0.053	0.0651	0.0782	0.0924	0.11	0.128	0.15	0.172	0.198	0.227
in water	2.84e-05	3.48e-05	4.18e-05	5.08e-05	6.05e-05	7.26e-05	8.54e-05	0.000101	0.00012	0.000144

Source: BigSolDB 2.1
